The values below come from paper PMC12519464, “Dual-Site Inhibition of SARS-CoV‑2 RNA-Dependent RNA Polymerase by Small Molecules Able to Block Viral Replication Identified through a Computer-Aided Drug Discovery Approach” (ACS Infectious Diseases, 2025).

One test has as its target SARS-CoV-2 nsp12/7/8 (RTC) complex (Severe acute respiratory syndrome coronavirus 2, UniProt P0DTD1). The test is described as follows: biochemical. The format is biochemical.
Conditions: not given
`CC(C)C1=CC(=O)[C@](C)([C@H]2[C@H](O)C[C@@]3(C)[C@@H]4CC=C5[C@@H](CC[C@@H](O[C@@H]6OC[C@@H](O)[C@H](O)[C@H]6O[C@@H]6O[C@@H](C)[C@H](O)[C@@H](O)[C@H]6O)C5(C)C)[C@]4(C)C(=O)C[C@]23C)O1` (racemic) [Picfeltarracemin Ia] displayed an IC50 of over 100 µM.

`C[C@H]1[C@H](C)CC[C@]2(C(=O)O)CC[C@]3(C)C(=CC[C@@H]4[C@@]5(C)C[C@@H](O)[C@H](O)[C@@](C)(CO)[C@@H]5CC[C@]43C)[C@H]12` [Asiatic Acid] showed an IC50 of over 100 µM.

Turning to `C[C@H]1[C@H](C)CC[C@]2(C)CC[C@]3(C)C(=CC[C@@H]4[C@@]5(C)CC[C@@H](O)[C@](C)(C(=O)O)[C@@H]5CC[C@]43C)[C@H]12` [Beta-Boswellic acid], the IC50 stood at 21.1 ± 4.45 µM.

On to `C=C(C)[C@@H]1CC[C@]2(C=O)CC[C@]3(C)[C@H](CC[C@@H]4[C@@]5(C)CC[C@H](O)C(C)(C)[C@@H]5CC[C@]43C)[C@@H]12` [Betulinaldehyde], for which the IC50 is over 100 µM.

Turning to `CC1(C)[C@@H](OC(=O)CCC(=O)O)CC[C@]2(C)[C@H]3C(=O)C=C4[C@@H]5C[C@@](C)(C(=O)O)CC[C@]5(C)CC[C@@]4(C)[C@]3(C)CC[C@@H]12` [Carbenoxolone, reference compound], the IC50 stood at 55.8 ± 8.66 µM.

The test is the same for the next values; noted with them: primer-extension PAGE assay, 150 nM RTC, 5% DMSO, 30 min preincubation at 37 °C; mean and SD of at least 3 independent experiments.
For `CC(C)CC(=O)Nc1cncc(-c2ccc3[nH]nc(-c4nc5c(-c6cccc(F)c6)cncc5[nH]4)c3c2)c1` [Adavivint, reference compound], the IC50 is over 100 µM.

`O=C(Nc1nc(-c2cc(Cl)cs2)c(N2CCN(C3CCCCC3)CC2)s1)c1cnc(N2CCC(C(=O)O)CC2)c(Cl)c1` [Avatrombopag, reference compound] showed an IC50 of 27.2 ± 7.35 µM.

`Cc1c(-c2c(F)cc(C(N)=O)c3[nH]c4c(c23)CC[C@H](C(C)(C)O)C4)cccc1-n1c(=O)c2cccc(F)c2n(C)c1=O` [BMS-986142, reference compound] gave an IC50 of 22.8 ± 3.63 µM.

As for `Nc1nc(Nc2ccc3c(c2)CC[C@@H](N2CCCC2)CC3)nn1-c1cc2c(nn1)-c1ccccc1CCC2` [Bemcentinib, reference compound], the IC50 is 18.5 ± 3.41 µM.

The test is the same for the next values; noted with them: read-out: IC50: compound concentration required to inhibit by 50% the SARS-CoV-2 RTC enzymatic activity.
Consider `O=C(COc1ccc2c(-c3ccccc3)cc(=O)oc2c1)Nc1ccc(OCc2ccccc2)cc1` [2-(2-oxo-4-phenylchromen-7-yl)oxy-N-(4-phenylmethoxyphenyl)acetamide], for which the IC50 turned out to be 80.5 ± 6.24 µM.

For the compound `CC1(C)[C@H](OC(=O)c2ccccc2)CC[C@]2(C)C3=C([C@@H](O)C[C@@H]12)[C@@]1(C)CC[C@@]2(C)CC[C@@](C)(COC(=O)c4ccccc4)C[C@H]2[C@]1(C)CC3` [3,29-Dibenzoyl Rarounitriol], the IC50 was over 100 µM.

For the compound `CC(C)=CCCC(C(=O)O)C1CCC2(C)C3=C(CCC12C)C1(C)CCC(=O)C(C)(C)C1CC3` (stereo not drawn) [3-Dehydrotrametenolic acid], the IC50 is over 100 µM.

Take `C[C@H]1[C@H](C)CC[C@]2(C(=O)O)CC[C@]3(C)C(=CC[C@@H]4[C@@]5(C)CC[C@H](O)C(C)(C)[C@@H]5CC[C@]43C)[C@H]12` [3-Epiursolic Acid]: the IC50 was 11.6 ± 3.97 µM.

On to `COc1ccc2cc(-c3cc(-c4cc(Cl)cc(Cl)c4)nn3[C@@H](C)c3ccc(C(=O)NCCC(=O)O)cc3)ccc2c1` [3-[[4-[(1S)-1-[3-(3,5-dichlorophenyl)-5-(6-methoxynaphthalen-2-yl)pyrazol-1-yl]ethyl]benzoyl]amino]propanoic acid, reference compound], for which the IC50 stood at 11.8 ± 6.43 µM.

In the case of `O=C(Nc1cccc(C(=O)O)c1)/C(=C\c1ccccc1)NC(=O)c1ccc(NC(=O)c2ccccc2)cc1` [3-[[(E)-2-[(4-benzamidobenzoyl)amino]-3-phenylprop-2-enoyl]amino]benzoic acid], the IC50 was found to be 85.7 ± 0.62 µM.

As to `Cc1cc2c(C(C)C)c(O)c(O)c(C=NCc3ccncc3)c2c(O)c1-c1c(C)cc2c(C(C)C)c(O)c(O)c(C=NCc3ccncc3)c2c1O` [3-methyl-5-propan-2-yl-8-(pyridin-4-ylmethyliminomethyl)-2-[1,6,7-trihydroxy-3-methyl-5-propan-2-yl-8-(pyridin-4-ylmethyliminomethyl)naphthalen-2-yl]naphthalene-1,6,7-triol], the IC50 came to 16.1 ± 0.32 µM.

In the case of `Cc1ccccc1N=Cc1c(O)c(O)c(C(C)C)c2cc(C)c(-c3c(C)cc4c(C(C)C)c(O)c(O)c(C=Nc5ccccc5C)c4c3O)c(O)c12` [3-methyl-8-[(2-methylphenyl)iminomethyl]-5-propan-2-yl-2-[1,6,7-trihydroxy-3-methyl-8-[(2-methylphenyl)iminomethyl]-5-propan-2-ylnaphthalen-2-yl]naphthalene-1,6,7-triol], the IC50 is 28.4 ± 7.42 µM.

Take `O=C(CCn1c2c(c3ccccc31)CCn1c-2nc2ccccc2c1=O)N1CCN(C2=Nc3ccccc3Oc3ccccc32)CC1` [13-{3-[4-(dibenzo[b,f][1,4]oxazepin-11-yl)piperazin-1-yl]-3-oxopropyl}-8,13-dihydroindolo[2',3':3,4]pyrido[2,1-b]quinazolin-5(7H)-one]: the IC50 is over 100 µM.

In the case of `CC(C)=CCC[C@@](C)(O)[C@H]1CC[C@]2(C)[C@@H]1[C@H](O)C[C@@H]1[C@@]3(C)CC[C@H](O[C@@H]4O[C@H](CO)[C@@H](O)[C@H](O)[C@H]4O)C(C)(C)[C@@H]3CC[C@]12C` [20(R)-Ginsenoside Rh2], the IC50 is over 100 µM.

For the compound `CC(C)(O)CC[C@H]1OC(C)(C)O[C@]1(C)[C@H]1CC[C@@]2(O)C3=CC(=O)[C@@H]4C[C@@H](O)[C@@H](O)C[C@]4(C)[C@H]3CC[C@]12C` [20-Hydroxyecdysone 20,22-acetonide], the IC50 is over 100 µM.

Regarding `C=CCOc1cccc(C(=O)[C@@H]2[C@@H]3CCCN3[C@]3(C(=O)Nc4c(C)cc(C)cc43)[C@@]23C(=O)Nc2ccccc23)c1` [(1'S,3R,3'S,7a'S)-5'',7''-dimethyl-1'-{[3-(prop-2-en-1-yloxy)phenyl]carbonyl}-5',6',7',7a'-tetrahydro-1'H-dispiro[indole-3,2'-pyrrolizine-3',3''-indole]-2,2''(1H,1''H)-dione], the IC50 is over 100 µM.

With `C/C(Nc1ccc(Oc2ccc(N/C(C)=C3\C(=O)C[C@@H]4[C@H]3C4(C)C)cc2)cc1)=C1/C(=O)C[C@@H]2[C@H]1C2(C)C` [(1S,2Z,5R)-2-[1-[4-[4-[[(1Z)-1-[(1S,5R)-6,6-dimethyl-3-oxo-2-bicyclo[3.1.0]hexanylidene]ethyl]amino]phenoxy]anilino]ethylidene]-6,6-dimethylbicyclo[3.1.0]hexan-3-one], the IC50 is over 100 µM.

For the compound `Cc1oc2c(C)c3oc(=O)c(CC(=O)N4C[C@H]5C[C@@H](C4)c4cccc(=O)n4C5)c(C)c3cc2c1-c1ccccc1` [(1S,9R)-11-[2-(2,5,9-trimethyl-7-oxo-3-phenylfuro[3,2-g]chromen-6-yl)acetyl]-7,11-diazatricyclo[7.3.1.02,7]trideca-2,4-dien-6-one], the IC50 was 28.3 ± 6.24 µM.

As for `CC(C)[C@@H](NC(=O)C1(c2ccccc2)CCN(C(=O)OC(C)(C)C)CC1)C(=O)N[C@@H](C(=O)O)c1ccccc1` [(2R)-[(N-{[1-(tert-butoxycarbonyl)-4-phenylpiperidin-4-yl]carbonyl}-D-valyl)amino](phenyl)ethanoic acid], the IC50 is over 100 µM.

In the case of `C[C@@H]1CC[C@@]2(OC1)O[C@H]1C[C@H]3[C@@H]4CC=C5C[C@@H](O[C@@H]6O[C@H](CO)[C@@H](O)[C@H](O)[C@H]6O[C@@H]6O[C@@H](C)[C@H](O)[C@@H](O)[C@H]6O)CC[C@]5(C)[C@H]4CC[C@]3(C)[C@@]1(O)[C@@H]2C` [(2S,3R,4R,5R,6S)-2-[(2R,3R,4S,5S,6R)-4,5-dihydroxy-6-(hydroxymethyl)-2-[(1R,2S,4S,5'R,6R,7S,8S,9S,12S,13R,16S)-8-hydroxy-5',7,9,13-tetramethylspiro[5-oxapentacyclo[10.8.0.02,9.04,8.013,18]icos-18-ene-6,2'-oxane]-16-yl]oxyoxan-3-yl]oxy-6-methyloxane-3,4,5-triol], the IC50 is over 100 µM.

For the compound `CO[C@H]1/C=C/O[C@@]2(C)Oc3c(C)c(O)c4c(c3C2=O)C(=O)C(N2CCCC2)=C(NC(=O)/C(C)=C\C=C\[C@H](C)[C@H](O)[C@@H](C)[C@H](O)[C@H](C)[C@H](O)[C@@H]1C)C4=O` [(7S,9E,11S,12S,13S,14S,15S,16R,17S,18S,19E,21Z)-2,13,15,17-tetrahydroxy-11-methoxy-3,7,12,14,16,18,22-heptamethyl-26-pyrrolidin-1-yl-8,30-dioxa-24-azatetracyclo[23.3.1.14,7.05,28]triaconta-1(28),2,4,9,19,21,25-heptaene-6,23,27,29-tetrone], the IC50 was 46.1 ± 15.6 µM.

As for `CC(C)=CCC[C@@](C)(O)[C@H]1CC[C@]2(C)[C@@H]1[C@H](O)C[C@@H]1[C@@]3(C)CC[C@H](O)C(C)(C)[C@@H]3[C@@H](O[C@@H]3O[C@H](CO)[C@@H](O)[C@H](O)[C@H]3O)C[C@]12C` [(20R)-Ginsenoside Rh1], the IC50 was over 100 µM.

Regarding `CC(C)=CCC[C@@](C)(O)[C@H]1CC[C@]2(C)[C@@H]1[C@H](O)C[C@@H]1[C@@]3(C)CC[C@H](O)C(C)(C)[C@@H]3CC[C@]12C` [(20R)-Protopanaxadiol], the IC50 was over 100 µM.

Turning to `CC(C)=CCC[C@](C)(O)[C@H]1CC[C@]2(C)[C@@H]1[C@H](O)C[C@@H]1[C@@]3(C)CC[C@H](O)C(C)(C)[C@@H]3CC[C@]12C` [(20S)-Protopanaxadiol], the IC50 is over 100 µM.

On to `CC(=O)O[C@@H](C[C@@H](C)C1=C2C[C@H](O)[C@H]3[C@@]4(C)CCC(=O)C(C)(C)[C@@H]4CC[C@]3(C)[C@@]2(C)CC1=O)[C@H]1OC1(C)C` [Alisol C monoacetate], for which the IC50 is over 100 µM.

Take `CC1(C)CC[C@]2(C)CC[C@]3(C)C(=CC[C@@H]4[C@@]5(C)CC[C@@H](O)[C@](C)(C(=O)O)[C@@H]5CC[C@]43C)[C@@H]2C1` [Alpha-Boswellic acid]: the IC50 turned out to be 93.5 ± 9.14 µM.

For `CC[C@H](/C=C/[C@@H](C)[C@H]1CC[C@H]2C3=CC[C@H]4C[C@@H](O[C@@H]5O[C@H](CO)[C@@H](O)[C@H](O)[C@H]5O)CC[C@]4(C)[C@H]3CC[C@]12C)C(C)C` [Alpha-Spinasterol glucoside], the IC50 was over 100 µM.

On to `Cc1ccc(NC(=O)[C@H]2CCCN(C(=O)c3c(C)cccc3F)[C@H]2c2ccc(NC3CCCC3)cc2)cc1C(F)(F)F` [Avacopan, reference compound], for which the IC50 is over 100 µM.
